# Reference: US8435547B2, “Cream for stimulating mitochondrial activity in the skin” (priority 2006, dated 2013)
# Columns and labels:
# skin = test: Skin testing for the cause of the allergic reactions; assay type: in vivo, human; details: skin testing in the same volunteer
# Description: When the use of the cream containing these ingredients was discontinued, the allergic lesions cleared completely without scarring.
# [1] = cited from earlier work
# [2] = oral, human; cited from earlier work
compound,measurement,setting,value
CCOC(=O)CC(O)C(=O)OCC (stereo not shown) [diethyl malate],ingredient responsible for the allergic reactions,skin,allergic reactions were due to the diethyl malate
tristeryl glycerol,solubility in alcohol,[1]; alcohol,very slightly soluble
same,solubility in water,[1]; water,insoluble
vitamin E,dose above which toxicity is evident,[2],above 1 gm/day
